Experimental data published in ChEMBL document CHEMBL3137667, “[Drug-induced liver injury; fourteenth updated edition of the bibliographic database of liver injuries and related drugs]” (Gastroenterol Clin Biol, 2004).

Legend:
[1] = Highest frequency of moderate liver toxicity observed during clinical trials, expressed as a percentage. [column '% BIOL' in source]; settings: human
[2] = Highest frequency of acute liver toxicity observed during clinical trials, expressed as a percentage. [column '% AIGUE' in source]; settings: human
[3] = human, serum
[4] = human, serum; remark: listed apart in the source
[5] = human
[6] = human; remark: listed apart in the source
[7] = human; remark: listed apart in the source
[8] = human, serum, 4383 h
[9] = human; remark: listed apart in the source
[10] = human; remark: listed apart in the source
[11] = human; remark: listed apart in the source
[12] = human; remark: listed apart in the source
[13] = human; remark: listed apart in the source
[14] = human; remark: listed apart in the source
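For Hepatotoxicity (association with vascular disease) in this document: count of indexed literature references reporting vascular liver injury in humans, e.g. peliosis hepatitis, hepatic veno-occlusive disease or Budd-Chiari syndrome.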
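For Hepatotoxicity (benign tumour) in this document: value is a count of indexed literature references citing a benign tumour confirmed by histopathology.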
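For Hepatotoxicity (choleostasis) in this document: human cholestatic liver injury, shown by histopathology or by peak ALT or AST elevation over alkaline phosphatase ratio below 2, value counts indexed literature reports.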
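For Hepatotoxicity (chronic liver disease) in this document: chronic liver injury confirmed by histopathology or persistently raised serum aminotransferase activity beyond 6 months, value given as the count of indexed literature references.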
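For Hepatotoxicity (cirrhosis) in this document: value is a count of indexed literature references reporting cirrhosis confirmed by histopathology.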
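For Hepatotoxicity (cytolytic) in this document: human cytolytic liver injury, shown by histopathology or by a ratio above 5 of peak ALT or AST elevation to alkaline phosphatase elevation, value counts indexed references.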
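For Hepatotoxicity (granulomatous hepatitis) in this document: value is a count of indexed literature references reporting granulomatous liver disease confirmed by histopathology.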
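For Hepatotoxicity (malignant tumour) in this document: malignant tumour confirmed by histopathology, value gives the count of indexed literature references reporting it.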
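For Hepatotoxicity (severe hepatitis) in this document: human clinical data: severe hepatitis, meaning potentially life-threatening liver failure or clinically observed cases, the value counts how many indexed literature references report it.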
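For Hepatotoxicity (steatosis) in this document: steatosis confirmed by histopathology, value is the count of indexed references.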

Structure (SMILES)	Hepatotoxicity (moderate) [1]	Hepatotoxicity (acute) [2]	Hepatotoxicity (moderate) [3]	Hepatotoxicity (acute) [4]	Hepatotoxicity (cytolytic) [5]	Hepatotoxicity (choleostasis) [6]	Hepatotoxicity (severe hepatitis) [7]	Hepatotoxicity (chronic liver disease) [8]	Hepatotoxicity (cirrhosis) [9]	Hepatotoxicity (granulomatous hepatitis) [10]	Hepatotoxicity (association with vascular disease) [11]	Hepatotoxicity (steatosis) [12]	Hepatotoxicity (malignant tumour) [13]	Hepatotoxicity (benign tumour) [14]	Hepatotoxicity (moderate) ([1]; Liver)	Hepatotoxicity (acute) ([2]; Liver)	Hepatotoxicity (cytolytic) ([5]; Liver)	Hepatotoxicity (choleostasis) ([6]; Liver)	Hepatotoxicity (severe hepatitis) ([7]; Liver)	Hepatotoxicity (granulomatous hepatitis) ([10]; Liver)
C[C@@H]1C[C@H](C)CN(S(=O)(=O)c2ccc(Cl)c(C(=O)O)c2)C1 [TIBRIC ACID]	0%	0%	1	0	0	0	0	0	0	0	0	0	0	0	–	–	–	–	–	–
CC(C)CCOc1ccc(NC(=S)Nc2ccc(OCCC(C)C)cc2)cc1 [TIOCARLIDE]	4.5%	0.4%	1	2	2	0	0	0	0	0	0	0	0	0	–	–	–	–	–	–
Clc1ccc(C(Cn2ccnc2)OCc2ccsc2Cl)c(Cl)c1 (stereo not drawn) [TIOCONAZOLE]	–	–	1	0	–	–	–	0	0	–	0	0	0	0	5.3%	0%	0	0	0	0
O=C1CC2(CCCC2)CC(=O)N1CCCCN1CCN(c2nsc3ccccc23)CC1 [TIOSPIRONE]	7.1%	0%	1	0	0	0	0	0	0	0	0	0	0	0	–	–	–	–	–	–
CC[C@@]1(O)C(=O)OCc2c1cc1n(c2=O)Cc2cc3c(CN(C)C)c(O)ccc3nc2-1 [TOPOTECAN]	5.3%	0%	1	0	0	0	0	0	0	0	0	0	0	0	–	–	–	–	–	–
Cc1cccc(Nc2ccncc2S(=O)(=O)NC(=O)NC(C)C)c1 [TORSEMIDE]	0.6%	0%	1	0	0	0	0	0	0	0	0	0	0	0	–	–	–	–	–	–
NC1CCN(c2nc3c(cc2F)c(=O)c(C(=O)O)cn3-c2ccc(F)cc2F)C1 (stereo not drawn) [TOSUFLOXACIN]	6.1%	0%	3	0	0	0	0	0	0	0	0	0	0	0	–	–	–	–	–	–
COc1cccc(C2(O)CCCCC2CN(C)C)c1 (stereo not drawn) [TRAMADOL]	0%	0%	1	0	0	0	0	0	0	0	0	0	0	0	–	–	–	–	–	–
OC(CCN1CCCCC1)(c1ccccc1)C1CCCCC1 (stereo not drawn) [TRIHEXYPHENIDYL]	–	–	0	1	–	–	–	0	0	–	0	0	0	0	0%	0%	1	0	1	0
COc1cc(NCc2ccc3nc(N)nc(N)c3c2C)cc(OC)c1OC [TRIMETREXATE]	25%	8%	10	1	0	0	0	0	0	0	0	0	0	0	–	–	–	–	–	–
CCCCC(C)(C)[C@H](O)/C=C/[C@H]1[C@H](C)CC(=O)[C@@H]1C/C=C\CCCC(=O)O [TRIMOPROSTIL]	0%	0%	1	0	0	0	0	0	0	0	0	0	0	0	–	–	–	–	–	–
CN(C)CCN(Cc1ccccc1)c1ccccn1 [TRIPELENNAMINE]	0%	0%	0	1	1	1	0	0	0	0	0	0	0	0	–	–	–	–	–	–
